US10428030B2, “Heterocycle derivatives and their use for the treatment of CNS disorders” (Trillium Therapeutics Inc., priority 2015, dated 2019)

Experiments:
corneal kindled mice = test: Corneal kindling mouse model (focal seizures); format: in vivo
Source text: Mice are kindled electrically with 3 sec stimulation, 8 mA, 60 Hz, and coneal electrodes to a criterion of 10 consecutive Stage 5 seizures (facial clonus and head nodding progressing to forelimb clonus, and finally rearing and falling accompanied by a generalized clonic seizure as described by Racine (Racine R J. Neurophysiol., 1972. 32: p. 281-294) Stage 5 is generally reached after twice daily stimulation for 8 days. With continued stimulation once a day, animals usually progress to a reproducible Stage 5 after 10-14 additional days. At least 72 hours after the mice have been kindled, the test substance is administered either i.p. or p.o. and, at the previously determined TPE, each animal is given the electrical stimulus indicated above. Following stimulation, the animals are observed for the presence or absence of the rearing and falling criteria of a Stage 5 seizure. Treated animals not displaying a Stage 3, 4, or 5 seizure are considered protected. The dose of the test substance is varied between the limits of 0 and 100% efficacy, and the ED50 and 95% confidence intervals calculated by probit analysis. Mean values and the S.E.M. are calculated for the length of clonus and seizure duration and p values are determined by the Student's t-test.

amygdala kindled rat = test: Amygdala kindled rat model (focal seizures); format: in vivo; details: <100 mg/kg i.p., vs vehicle controls
Source text: Amygdala kindling model is an animal model for complex partial seizures, which is the most common type of epilepsy in adults and is often drug resistant. Exemplary compounds of the application were effective in this model.

[1] = tested on: Frings audiogenic seizure-susceptible mice; test: Frings audiogenic seizure (AGS)-susceptible mouse model; format: in vivo
Source text: Frings audiogenic seizure (AGS)-susceptible mice model examines the ability of an investigational drug to alter the onset and/or severity of seizures in a genetic mouse model of seizure susceptibility. Mice are genetically susceptible to sound-induced reflex seizures. Their seizure phenotype is characterized by wild running, loss of righting reflex, tonic flexion, and tonic extension in response to high-intensity sound stimulation. […] For example, the prototypical anticonvulsants phenytoin and ethosuximide display widely divergent clinical spectrums in humans, but are both active against sound-induced seizures in mice. Yet, the preclinical utility of this animal model rests in the useful information that can be obtained within a genetically susceptible model of seizures. Further, efficacy in this model provides proof of concept of brain bioavailability following systemic administration. The Frings AGS-susceptible mouse has a well-validated epilepsy phenotype that makes it particularly useful as a screening model. Beginning at about 21 days of age, Frings AGS-susceptible mice display prominent seizure activity in response to a high-intensity sound stimulus. They then remain susceptible to sound throughout their life. This is in stark contrast to the DBA2J AGS-susceptible mouse, which is the other common model of sound-induced seizures, as DBA2J mice are only susceptible to sound-induced seizures during a narrow developmental window (post-natal days 18-30). Thus, the Frings AGS-susceptible mouse seizures respond to a wide range of CNS-active drugs and display sound-induced seizures throughout their lifetime. In this regard, Frings AGS-susceptible mice are a highly useful screening model for the identification and characterization of compounds potentially effective against inherited epilepsy.
Male and female Frings audiogenic seizure-susceptible mice (18-25 g) are maintained in an in-house colony at the University of Utah. For each screening test, groups of 8 mice each are treated i.p. with varying doses of the investigational compound. At the time of peak effect as determined in the MES test (Test 4 in CF1 mice), individual mice are placed in a round plexiglass jar (diameter, 15 cm, height, 18 cm) and exposed to a sound stimulus of 110 decibels (11 KHz) delivered for 20 sec. Mice are observed for 25 sec for the presence or absence of hind limb tonic extension. Mice not displaying hind limb tonic extension are considered protected. The severity of a seizure may also be quantitated by assigning a numerical score to the observed response, e.g. no response—0; wild running for <10 sec—1; wild running for >10 sec—2; clonic seizure—3; forelimb extension/hind limb flexion—4; tonic seizure—5.

Rotorod (ip), mouse = details: in vivo, mice
[2] = Fixed speed rotorod, gross motor function (rat); details: male, Sprague-Dawley, in vivo, po
Description: On the test day following a defined drug pretreatment period, rats received a maximal electroshock (150 mA, 0.2 s duration, 60 Hz) via corneal electrodes. Protection was defined as absence of a full tonic seizure within 10 s of stimulus delivery. Twenty minutes before the MES procedure, the animals were tested on a fixed speed rotorod (best score from 3 trials at 8 r.p.m, trial duration=60 s) to give an early assessment of drug effect on gross motor function.

mice = test: Intravenous Metrazol Seizure Threshold Test (i.v. MET); format: in vivo; details: mouse, ip, i.v. Metrazol infusion (FIG. 1)
Description: The iv-Met test provides a measure of a test substance's ability to raise or lower seizure threshold. Two doses of the test compound are usually employed in this test, the MES ED50 and the TD50 determined following ip quantification testing in mice. Randomly selected mice are injected intraperitoneally 2 minutes apart with either the vehicle or the two test drug doses, maintaining the same order of dosing until 30 mice have been injected. At the previously determined TPE, 0.5% heparinized Metrazol solution is infused at a constant rate of 0.34 ml/min into a lateral tail vein of an unrestrained mouse. Infusion is by means of a Sage syringe pump (model 341 A) and a 10 ml B-D plastic syringe connected to a length of No 20 P.E. tubing. A 27 gauge stainless steel needle with the hub removed is connected to the tubing and inserted into a vein, bevel side up and secured to the tail by a narrow piece of adhesive tape. For the placement of the needle, the mouse is restrained in a cone shaped device with only the tail exposed. The rate selector is set on 4, and the switch is set at ml/min. […] The time in seconds from the start of the infusion to the appearance of the “first twitch” and the onset of sustained clonus is recorded. […]
The mean and standard error for each of the 3 groups and the significance of the difference between the test groups and the control are calculated.

O=C1COc2cc(OCc3ccc(OC(F)F)cc3)ccc2N1 [Compound I(B)]
ED50 (corneal kindled mice; Mus musculus, corneal kindled mice, read-out: ED50, suppression of fully kindled (stage 5) seizures): 119 ± 1.81 mg/kg | Average Seizure (corneal kindled mice; dose 35 mg/kg): 5 | N/F (number of animals active over the number tested) (corneal kindled mice; dose 35 mg/kg): 0/8 | Average Seizure (corneal kindled mice; dose 70 mg/kg): 4.6 | N/F (number of animals active over the number tested) (corneal kindled mice; dose 70 mg/kg): 1/8 | Average Seizure (corneal kindled mice; dose 140 mg/kg): 2.4 | N/F (number of animals active over the number tested) (corneal kindled mice; dose 140 mg/kg): 5/8 | Average Seizure (corneal kindled mice; dose 300 mg/kg): 0.8 | N/F (number of animals active over the number tested) (corneal kindled mice; dose 300 mg/kg): 8/8 | effect on fully kindled (stage 5) seizures (corneal kindled mice; vs vehicle controls): dose related suppression of fully kindled (stage 5) seizures | suppression of fully kindled (stage 5) seizures (amygdala kindled rat): dose related suppression of fully kindled (stage 5) seizures | ED50 ([1]; Mus musculus, ip, sound-induced seizures): 13 ± 2 mg/kg | effect on AGS ([1]; i.p.): dose-dependently blocks AGS | ED50 at 0.5 hours (Rotorod (ip), mouse): > 500 mg/kg | ED50 at 4 hours [2]: > 500 mg/kg | effect on seizure threshold (mice): dose-dependently increased the seizure threshold
